Tests used:
[1] = test system: testosterone 5α-reductase; assay: Inhibition of 5α-reductase isolated from rat prostate gland (prostate microsomes, 4-14C-testosterone); type: biochemical; settings: testosterone 2×10^-6 M, microsomes equivalent to 180 mg fresh tissue
ventral prostate = assay: Prostate weight in castrated male rats treated with testosterone (benign prostatic hypertrophy procedure); type: in vivo; settings: 200 mg/kg gavage every 8 hours for 8 days plus testosterone 0.6 mg/rat s.c. daily; compared to testosterone only (Group II)
Procedure: The effectiveness of the present compounds for the treatment of benign prostatic hypertrophy can be illustrated by the following procedure using 3 groups of castrated male rats. Starting 10 days after castration, Test Group I (5 animals) received 200 mg/kg of (5α,20R) -4-diazo-21-hydroxy-20-methylpregnan-3-one, given by gavage every 8 hours for 8 days as a suspension in 0.25 % aqueous Methocel. Starting 8 hours after the first dose of test compound, the animals also received testosterone daily at a dose of 0.6 mg/rat s.c. in olive oil. The last dose of test compound was administered 8 hours after the last dose of testosterone and the animals were sacrificed 8 hours later. Test Group II (12 animals) received only the testosterone treatment described above while the third group of rats (10 animals) served as controls and received the oral and s.c. vehicles only. At sacrifice, the ventral prostate was removed and weighed.

preputial glands = assay: Preputial gland weight in castrated male rats treated with testosterone; type: in vivo; settings: 200 mg/kg gavage every 8 hours for 8 days plus testosterone 0.6 mg/rat s.c. daily; compared to control rats
5α-reductase = assay: Affinity (Ki, Km) for 5α-reductase; type: biochemical
Excerpt: The potency of any enzyme inhibitor is often expressed in terms of its inhibition constant, Ki, which is defined mathematically in terms of established relationships of enzyme-catalyzed reaction rates to inhibitor and substrate concentrations. […] In the case of the substrate, the corresponding value is known as the Km, the relationship to combining power being roughly the same.

SMILES: C[C@@H](CO)[C@H]1CC[C@H]2[C@@H]3CC[C@H]4C(=[N+]=[N-])C(=O)CC[C@]4(C)[C@H]3CC[C@]12C [(5α,20R)-4-Diazo-21-hydroxy-20-methylpregnan-3-one]
- inhibition of the conversion of testosterone to 5α-reduced products ([1]; inhibitor 3×10^-7 M): 75%
- inhibition of the conversion of testosterone to DHT and androstanediol (ADIOL) overall ([1]; inhibitor 3×10^-8 M): 49%
- prostatic weight (ventral prostate) (ventral prostate): significant reduction in prostatic weight
- weights of preputial glands (preputial glands): significantly less than weights of preputial glands of the control rats

SMILES: CC(CO)[C@H]1CC[C@H]2[C@@H]3CCC4=CC(=O)CC[C@]4(C)[C@H]3CC[C@]12C (stereo partly drawn) [reference compound]
- Ki (5α-reductase): 220 nM

SMILES: C[C@]12CC[C@H]3[C@@H](CCC4=CC(=O)CC[C@@]43C)[C@@H]1CC[C@@H]2O [testosterone, reference compound]
- Km (5α-reductase; substrate): 1 µM

SMILES: C[C@H](CO)[C@H]1CC[C@H]2[C@@H]3CC[C@H]4C(=[N+]=[N-])C(=O)CC[C@]4(C)[C@H]3CC[C@]12C
- Ki (5α-reductase): 35 nM
- affinity for the enzyme relative to the substrate (testosterone) (5α-reductase; vs Km of testosterone): 29 times
- potency relative to the previous inhibitor (5α-reductase; vs previously known inhibitor of the comparison): 6.3 times

Source: patent publication US4317817A, “Novel steroid 5α-reductase inhibitors” (Richardson-Merrell Inc., priority 1980, dated 1982)
